# Results as given in patent publication US20240327379A1, “MANDELATE FORM OF 1-(4-(((6-AMINO-5-(4-PHENOXYPHENYL)PYRIMIDIN-4-YL)AMINO)METHYL)PIPERIDIN-1-YL)PROP-2-EN-1-ONE” (Sandoz AG, priority 2021, published 2024).
# Assays:
# [1] = Gravimetric moisture sorption (GMS); type: physicochemical; settings: (25±0.1)° C.
# Experimental: Gravimetric moisture sorption was performed with an SPSx-1μ moisture sorption analyzer (ProUmid, Ulm). The measurement cycle was started at ambient relative humidity (RH) of 30%. RH was then decreased to 5% in 5% steps, followed by a further decrease to 3% and to 0%. […] Finally, RH was increased to ambient relative humidity of 30% in 5% steps. The time per step was set to a minimum of 2 hours and a maximum of 6 hours. If an equilibrium condition with a constant mass of =0.01% within 1 hour was reached before the maximum time for all examined samples the sequential humidity step was applied before the maximum time of 6 hours. If no equilibrium was achieved the consecutive humidity step was applied after the maximum time of 6 hours. The temperature was (25±0.1)° C.
# [2] = Thermogravimetric analysis (TGA); type: physicochemical; settings: heated from 25° C. at 10 K/min, nitrogen purge
# Experimental: TGA was performed on a Mettler TGA/DSC 1 instrument. The sample (6.53 mg) was heated in a 100 microliter aluminium pan, closed with an aluminium lid, from 25 to 250° C. at a rate of 10 K/min. The lid was automatically pierced at the beginning of the measurement. Nitrogen (purge rate 30 mL/min) was used as purge gas.
structure (smiles),measurement,setting,value
C=CC(=O)N1CCC(CNc2ncnc(N)c2-c2ccc(Oc3ccccc3)cc2)CC1 [crystalline evobrutinib mandelate form],hygroscopic behaviour,[1]; GMS 0-90% RH,slightly hygroscopic
same,"physical stability during moisture sorption/desorption (hysteresis, PXRD after the experiment)","[1]; GMS cycle 0-90% RH, PXRD after the experiment",no structural changes appear during the experiment
same,mass difference in the sorption cycle between 0 and 80% RH,"[1]; GMS sorption cycle, 0 to 80% RH",about 0.5 w-%
same,maximum uptake between 0 and 90% RH,"[1]; GMS, 0 to 90% RH",about 0.6%
same,mass loss from the beginning of the measurement until about 170° C.,[2],about 0.1%
